Legend:
Experiment in all cases: Kinase profiling in a biochemical assay panel (mobility shift assays and ELISA), %-inhibition at 1 μM; selectivity entropy
[1] = molecular target: T1, panel of more than 300 wild-type and mutant kinases (313 kinase panel) (Homo sapiens, UniProt Q13470)
T1 sequence (Q13470 1-666): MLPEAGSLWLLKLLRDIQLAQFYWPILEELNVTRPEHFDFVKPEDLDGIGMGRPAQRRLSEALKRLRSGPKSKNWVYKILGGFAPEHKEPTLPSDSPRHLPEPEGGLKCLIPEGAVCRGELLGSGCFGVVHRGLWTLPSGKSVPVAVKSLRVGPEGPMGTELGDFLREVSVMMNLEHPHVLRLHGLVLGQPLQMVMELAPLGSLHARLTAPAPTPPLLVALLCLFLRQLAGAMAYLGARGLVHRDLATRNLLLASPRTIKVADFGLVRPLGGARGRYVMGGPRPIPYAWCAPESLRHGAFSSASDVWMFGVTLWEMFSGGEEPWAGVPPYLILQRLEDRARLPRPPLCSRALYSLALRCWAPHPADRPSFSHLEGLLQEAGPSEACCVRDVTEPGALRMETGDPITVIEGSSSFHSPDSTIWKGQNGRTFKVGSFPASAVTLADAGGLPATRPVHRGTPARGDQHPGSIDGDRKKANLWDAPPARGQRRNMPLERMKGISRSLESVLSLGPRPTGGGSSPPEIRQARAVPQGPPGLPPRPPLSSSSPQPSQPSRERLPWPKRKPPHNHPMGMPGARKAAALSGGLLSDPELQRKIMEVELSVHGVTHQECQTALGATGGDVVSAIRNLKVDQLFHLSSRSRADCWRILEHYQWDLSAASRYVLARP

[2] = molecular target: panel of more than 300 wild-type and mutant kinases (313 kinase panel) (Homo sapiens, UniProt P54756); conditions: kinase EPHA5; compound at 1 μM
[3] = molecular target: panel of more than 300 wild-type and mutant kinases (313 kinase panel) (Homo sapiens, UniProt P17612); conditions: kinase PKACα; 1 μM
[4] = molecular target: panel of more than 300 wild-type and mutant kinases (313 kinase panel) (Homo sapiens, UniProt P42336); conditions: kinase PIK3CA/PIK3R1; 1 μM
[5] = molecular target: T2, panel of more than 300 wild-type and mutant kinases (313 kinase panel) (Homo sapiens, UniProt O00418); conditions: kinase EEF2K; compound at 1 μM
T2 sequence (O00418 1-725): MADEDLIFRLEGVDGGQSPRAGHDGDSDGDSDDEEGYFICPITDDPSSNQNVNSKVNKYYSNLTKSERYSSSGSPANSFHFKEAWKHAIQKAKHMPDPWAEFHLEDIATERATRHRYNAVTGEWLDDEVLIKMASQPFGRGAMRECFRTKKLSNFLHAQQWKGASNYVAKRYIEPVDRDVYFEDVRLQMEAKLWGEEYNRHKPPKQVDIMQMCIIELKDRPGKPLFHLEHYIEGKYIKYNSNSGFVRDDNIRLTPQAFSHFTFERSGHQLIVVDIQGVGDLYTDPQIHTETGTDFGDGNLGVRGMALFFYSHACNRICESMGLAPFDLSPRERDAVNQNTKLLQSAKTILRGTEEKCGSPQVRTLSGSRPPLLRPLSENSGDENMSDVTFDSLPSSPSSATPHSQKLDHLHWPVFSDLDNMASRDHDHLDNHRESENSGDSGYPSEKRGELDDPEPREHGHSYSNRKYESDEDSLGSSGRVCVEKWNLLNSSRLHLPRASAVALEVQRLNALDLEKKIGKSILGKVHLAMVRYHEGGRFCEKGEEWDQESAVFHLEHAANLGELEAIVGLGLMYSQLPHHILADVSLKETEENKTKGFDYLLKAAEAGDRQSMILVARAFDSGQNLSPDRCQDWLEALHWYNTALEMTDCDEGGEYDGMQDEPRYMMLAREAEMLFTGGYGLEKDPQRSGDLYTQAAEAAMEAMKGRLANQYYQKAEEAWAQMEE

[6] = molecular target: panel of more than 300 wild-type and mutant kinases (313 kinase panel) (Homo sapiens, UniProt P08922); conditions: kinase ROS; 1 μM
[7] = molecular target: panel of more than 300 wild-type and mutant kinases (313 kinase panel) (Homo sapiens, UniProt Q9Y6E0); conditions: kinase MST3; 1 μM
[8] = molecular target: panel of more than 300 wild-type and mutant kinases (313 kinase panel) (Homo sapiens, UniProt P16234, T674I); conditions: kinase PDGFRα(T674I); 1 μM
[9] = molecular target: panel of more than 300 wild-type and mutant kinases (313 kinase panel) (Homo sapiens, UniProt Q15119); conditions: kinase PDHK2; 1 μM
[10] = molecular target: panel of more than 300 wild-type and mutant kinases (313 kinase panel) (Homo sapiens, UniProt Q8TDX7); conditions: kinase NEK7; 1 μM

Chain of panel of more than 300 wild-type and mutant kinases (313 kinase panel) (Homo sapiens, UniProt P16234, T674I) (P16234 24-1089 T674I): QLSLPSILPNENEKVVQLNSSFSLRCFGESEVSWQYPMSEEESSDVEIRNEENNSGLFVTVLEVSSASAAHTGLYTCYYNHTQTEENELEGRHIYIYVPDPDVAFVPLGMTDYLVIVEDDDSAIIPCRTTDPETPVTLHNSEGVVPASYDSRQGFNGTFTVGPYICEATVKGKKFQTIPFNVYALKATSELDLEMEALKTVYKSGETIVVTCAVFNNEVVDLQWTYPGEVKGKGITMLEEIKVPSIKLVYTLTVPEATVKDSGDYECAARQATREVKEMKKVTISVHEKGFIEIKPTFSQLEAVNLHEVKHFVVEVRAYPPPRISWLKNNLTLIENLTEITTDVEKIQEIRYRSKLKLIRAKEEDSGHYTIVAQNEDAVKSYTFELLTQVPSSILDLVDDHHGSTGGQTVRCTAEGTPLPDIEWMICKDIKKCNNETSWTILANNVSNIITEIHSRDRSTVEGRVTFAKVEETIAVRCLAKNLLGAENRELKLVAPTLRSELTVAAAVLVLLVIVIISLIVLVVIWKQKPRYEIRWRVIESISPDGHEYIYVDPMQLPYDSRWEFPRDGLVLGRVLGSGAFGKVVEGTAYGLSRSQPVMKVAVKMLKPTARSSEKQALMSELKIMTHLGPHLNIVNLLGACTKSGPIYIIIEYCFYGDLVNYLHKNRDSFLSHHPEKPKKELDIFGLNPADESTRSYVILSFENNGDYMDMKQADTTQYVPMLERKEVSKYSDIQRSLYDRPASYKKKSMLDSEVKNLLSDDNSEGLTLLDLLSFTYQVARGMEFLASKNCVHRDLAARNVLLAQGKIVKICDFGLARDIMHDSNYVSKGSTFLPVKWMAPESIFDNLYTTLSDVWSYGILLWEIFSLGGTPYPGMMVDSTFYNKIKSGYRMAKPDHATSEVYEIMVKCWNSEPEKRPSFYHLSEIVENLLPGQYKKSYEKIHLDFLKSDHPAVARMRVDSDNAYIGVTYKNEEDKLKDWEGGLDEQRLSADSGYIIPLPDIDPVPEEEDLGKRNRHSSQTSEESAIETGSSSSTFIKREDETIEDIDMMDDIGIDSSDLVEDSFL

Structure (SMILES) | %-inhibition of TNK1 ([1]; kinase TNK1, 1 μM) [%] | %-inhibition of EPHA5 [2] [%] | %-inhibition of PKACα [3] [%] | %-inhibition of PIK3CA/PIK3R1 [4] [%] | %-inhibition of EEF2K [5] [%] | %-inhibition of ROS [6] [%] | %-inhibition of MST3 [7] [%] | %-inhibition of PDGFRα(T674I) [8] [%] | %-inhibition of PDHK2 [9] [%] | %-inhibition of NEK7 [10] [%] | %-inhibition of TNK1 ([1]; 1 µM) [%]
CO[C@H]1C[C@@H]2CC[C@@H](C)[C@@](O)(O2)C(=O)C(=O)N2CCCC[C@H]2C(=O)O[C@H]([C@H](C)C[C@@H]2CC[C@@H](OC(=O)C(C)(CO)CO)[C@H](OC)C2)CC(=O)[C@H](C)/C=C(\C)[C@@H](O)[C@@H](OC)C(=O)[C@H](C)C[C@H](C)/C=C/C=C/C=C/1C [temsirolimus] | -3 | -3.79 | -6 | 22 | -6 | -2 | -3.6 | -2.73 | -2.2 | -8 | 
CC(=O)Nc1cccc(-n2c(=O)n(C3CC3)c(=O)c3c(Nc4ccc(I)cc4F)n(C)c(=O)c(C)c32)c1 [trametinib] |  | -2.67 | 8.52 | 0.26 | -3.43 | -0.611 | 1.75 | -0.248 | -0.542 | 1.63 | -2.58
COc1cc2c(Nc3ccc(Br)cc3F)ncnc2cc1OCC1CCN(C)CC1 [vandetanib] | 23 | 89 | 1.29 | 23 | -10 | 48 | 7 | 91 | 0.22 | -6 | 
CCCS(=O)(=O)Nc1ccc(F)c(C(=O)c2c[nH]c3ncc(-c4ccc(Cl)cc4)cc23)c1F [vemurafenib] | 13 | 14 | -4 | 24 | -5 | 2 | -1.73 | 1.49 | 3.73 | -3.56 | 
